Measurements: patent US20240124409A1, “GUAIANOLIDE SESQUITERPENE LACTONE DERIVATIVES AND PHARMACEUTICAL USE THEREOF” (NANJING UNIVERSITY OF CHINESE MEDICINE, priority 2021, published 2024)

Columns and labels:
NLRP3 inflammasome = biological target: T1, NLRP3 inflammasome (Mus musculus, UniProt Q8R4B8); assay: Inhibition of LPS and ATP induced NLRP3 inflammasome activation in BMDMs (IL-1β level); type: cell-based, C57BL/6 mice; settings: read-out: IC50, inhibitory effect on activation of NLRP3 inflammasome
T1 construct: endogenous in cells; host or cells: primary bone marrow-derived macrophages (BMDMs) from female C57BL/6 mice, differentiated with rmM-CSF
T1 sequence (Q8R4B8 whole entry): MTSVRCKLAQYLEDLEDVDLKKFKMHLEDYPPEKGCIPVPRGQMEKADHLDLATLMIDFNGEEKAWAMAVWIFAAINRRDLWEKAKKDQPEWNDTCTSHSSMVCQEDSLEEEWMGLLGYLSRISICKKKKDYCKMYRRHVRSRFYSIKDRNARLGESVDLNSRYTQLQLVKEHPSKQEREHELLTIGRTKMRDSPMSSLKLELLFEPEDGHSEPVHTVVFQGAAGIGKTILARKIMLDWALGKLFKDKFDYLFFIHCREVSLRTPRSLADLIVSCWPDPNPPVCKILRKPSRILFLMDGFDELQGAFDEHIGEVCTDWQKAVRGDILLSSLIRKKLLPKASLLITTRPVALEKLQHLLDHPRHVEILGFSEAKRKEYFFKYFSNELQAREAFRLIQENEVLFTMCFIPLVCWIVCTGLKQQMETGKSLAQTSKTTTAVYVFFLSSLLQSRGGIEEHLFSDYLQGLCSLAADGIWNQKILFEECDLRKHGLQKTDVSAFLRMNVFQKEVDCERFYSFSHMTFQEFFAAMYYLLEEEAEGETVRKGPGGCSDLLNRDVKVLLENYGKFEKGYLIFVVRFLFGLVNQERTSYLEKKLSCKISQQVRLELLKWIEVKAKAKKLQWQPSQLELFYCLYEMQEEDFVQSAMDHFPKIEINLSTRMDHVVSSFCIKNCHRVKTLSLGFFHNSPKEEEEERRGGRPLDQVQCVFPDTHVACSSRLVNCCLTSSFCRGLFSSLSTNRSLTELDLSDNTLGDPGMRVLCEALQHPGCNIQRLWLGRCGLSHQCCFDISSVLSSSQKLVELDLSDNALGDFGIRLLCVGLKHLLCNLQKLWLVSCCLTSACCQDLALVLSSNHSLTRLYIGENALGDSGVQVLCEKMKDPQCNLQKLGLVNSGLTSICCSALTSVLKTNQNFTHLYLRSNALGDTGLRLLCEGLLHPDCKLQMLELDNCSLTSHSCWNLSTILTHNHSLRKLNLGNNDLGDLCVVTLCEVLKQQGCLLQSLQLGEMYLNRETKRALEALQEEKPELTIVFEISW
Source text: NLRP3 is an important pattern recognition receptor, that can form the NLRP3 inflammasome through the adaptor ASC and pro-caspase-1. After activation, the NLRP3 inflammasome can mediate the activation of caspase-1, thus promoting the maturation and secretion of IL-1β. In order to determine whether the prepared guaianolide sesquiterpene lactone Compounds 1-8 can inhibit the activation of the NLRP3 inflammasome, we used LPS and ATP to induce the activation of the NLRP3 inflammasome, and observed the effects of Compounds 1-8 on the IL-1β level caused by NLRP3 inflammasome activation.
C57BL/6 mice were sacrificed by cervical dislocation, and then soaked in 75% alcohol for 5-10 min. Subsequently, two hind legs of the mice were cut off with scissors. Next, the meat was removed, and the leg bones were left, which were then washed with PBS for three times. After severing the bone at both ends, a sterile syringe filled with cold serum-free RPMI 1640 medium was used to flush the bone marrow into a 15 mL centrifuge tube. Subsequently, the bone marrow was centrifuged at 1500 rpm for 5 min, and the supernatant was discarded. The residue was resuspended with 1 mL of erythrocyte lysate, blown repeatedly, and then stood for 7 min to lyse erythrocytes. After centrifugation at 1500 rpm for 5 min, the supernatant was discarded. The residue was resuspended with the RPMI 1640 medium containing 100 ng/ml of rmM-CSF, and then transferred to a 6-well culture plate for culture.
The BMDMs were seeded on 6-well cell culture plates and then treated with 100 ng/ml ultrapure LPS for 3 h. […] Subsequently, the cells were stimulated with 5 mM ATP for 45 min. The supernatants were collected into 1.5 mL EP tubes for subsequent detection of IL-1β level.

mouse sepsis model = assay: Mouse sepsis model (LPS), Q-PCR of inflammatory factors; type: in vivo, C57BL/6 mice; set-up: key: relative mRNA by 2^−ΔΔCt, normalized to Gapdh
Source text: The mice were randomly divided into 8 groups, one of which was randomly selected as the normal group, and the other 7 groups were the model group, the parent drug 1 (0.4 and 4 μmol/kg), the hydrochloride 22 (4 μmol/kg), the fumarate 23 (0.4 and 4 μmol/kg) and dexamethasone (Dex, 12 μmol/kg) groups, respectively, with 6 mice in each group. 5 days before model establishment, the parent drug 1 (0.4 and 4 μmol/kg), the hydrochloride 22 (4 μmol/kg), the fumarate 23 (0.4 and 4 μmol/kg) and Dex (12 μmol/kg) were administered intragastrically. The mice in the normal group and model group were administered intragastrically the same volume of the solvent 0.5% CMC-Na. LPS (10 mg/kg) was injected intraperitoneally 1 hour after administration on the last day to establish a mouse sepsis model.
At 6 h after intraperitoneal injection of LPS, the mice were sacrificed by cervical dislocation, and the abdominal cavity was opened. The lungs, livers and kidneys were taken out, and rinsed twice with pre-cooled PBS. The lung tissues, liver left lobe tissues and kidney tissues of the mice were cut, and fixed with 4% paraformaldehyde for 24-48 h. The remaining tissues were frozen at −70° Cfor subsequent use.
20 mg of kidney, lung and liver tissues were accurately weighed, rinsed with pre-cooled PBS solution, cut into small pieces by ophthalmic surgical scissors, and put into a glass homogenizer, into which was added 1 mL Trizol reagent for grinding to prepare tissue homogenate. Subsequently, the homogenate was transferred into a 1.5 mL EP tube without RNase and lysed on ice for 10 min. 200 μL chloroform was added, and the mixture was shaken violently, stood on ice for 3-5 min, and centrifuged at 12000 rpm and 4° C. for 15 min. The supernatant was aspirated carefully into a new 1.5 mL EP tube without RNase, into which was added the same volume of pre-cooled isopropanol, stood on an ice bath for 30 min, centrifuged at 12000 rpm and 4° C. for 10 min, and the supernatant was discarded. 75% ethanol-DEPC solution was added to wash the precipitate, and the total RNA was obtained by inversion and air drying on flat paper. Subsequently, 10 μL of DEPC treated water was added for dissolution. 1 μL of the total RNA solution was taken, and diluted to 100 times, the OD values of which at 260 nm and 280 nm were measured with a full wavelength microplate reader. If the ratio of OD260/OD280 is between 1.8 and 2.0, it is said that the extracted RNA has a high purity, i.e., it can be used in subsequent experiments.
Subsequent experiments were carried out with 20 μL of a reverse transcription reaction system according to the method described in the kit instructions:
Subsequent experiments were carried out with 20 μL of a reaction system according to the method described in the kit instructions:
The above reagents were added into a micro-reaction tube, sealed with a sealing membrane, and placed in a Q-PCR instrument. The parameters were set according to the following reaction conditions to carry out the amplification experiment. The reaction conditions were as follows:
The threshold cycle (Ct) value of each group was recorded. Calculating and analyzing were carried out by the 2^−ΔΔCt method (the expression level of the control gene Gapdh was set to 1 to correct the expression level of the target gene).

[1] = Table 12, title 'in lung' (text b281: liver), 4 μmol/kg i.g.
[2] = Table 12, title 'in lung' (text b281: liver), 0.4 μmol/kg i.g.

Row | Compound | IC50 (NLRP3 inflammasome) [nM] | Il1 mRNA expression (mouse sepsis model; [1]) | Il6 mRNA expression (mouse sepsis model; [1]) | Tnf mRNA expression (mouse sepsis model; [1]) | Il1 mRNA expression (mouse sepsis model; kidney, 4 μmol/kg i.g.) | Il6 mRNA expression (mouse sepsis model; kidney, 4 μmol/kg i.g.) | Tnf mRNA expression (mouse sepsis model; kidney, 4 μmol/kg i.g.) | Il1 mRNA expression (mouse sepsis model; lung, 4 μmol/kg i.g.) | Il6 mRNA expression (mouse sepsis model; lung, 4 μmol/kg i.g.) | Tnf mRNA expression (mouse sepsis model; lung, 4 μmol/kg i.g.) | Il1 mRNA expression (mouse sepsis model; [2]) | Il6 mRNA expression (mouse sepsis model; [2]) | Tnf mRNA expression (mouse sepsis model; [2]) | Il1 mRNA expression (mouse sepsis model; kidney, 0.4 μmol/kg i.g.) | Il6 mRNA expression (mouse sepsis model; kidney, 0.4 μmol/kg i.g.) | Tnf mRNA expression (mouse sepsis model; kidney, 0.4 μmol/kg i.g.) | Il1 mRNA expression (mouse sepsis model; lung, 0.4 μmol/kg i.g.) | Il6 mRNA expression (mouse sepsis model; lung, 0.4 μmol/kg i.g.) | Tnf mRNA expression (mouse sepsis model; lung, 0.4 μmol/kg i.g.)
1 | CN(C)C[C@@H]1C(=O)O[C@H]2[C@H]1CC[C@@]1(C)C[C@]13CC[C@@](C)(O)[C@H]23 [Compound 22] | 40 to 80 | 3.07 ± 0.29 | 3.93 ± 0.90 | 5.71 ± 0.61 | 2.76 ± 0.59 | 2.43 ± 0.64 | 6.20 ± 0.60 | 5.22 ± 0.90 | 7.16 ± 0.71 | 6.52 ± 0.29 | – | – | – | – | – | – | – | – | –
2 | CN(C)C[C@@H]1C(=O)O[C@H]2[C@H]1CC[C@@]1(C)C[C@]13CC[C@@](C)(O)[C@H]23 [Compound 23] | 40 to 80 | 4.36 ± 0.94 | 4.97 ± 0.77 | 7.10 ± 1.09 | 2.82 ± 0.33 | 2.70 ± 0.52 | 6.04 ± 1.62 | 6.79 ± 0.72 | 9.10 ± 1.20 | 8.67 ± 1.51 | 10.46 ± 1.55 | 9.13 ± 0.80 | 7.63 ± 1.97 | 6.56 ± 0.88 | 6.05 ± 0.19 | 6.70 ± 0.80 | 13.30 ± 0.88 | 18.40 ± 3.16 | 8.79 ± 1.18
3 | C=C1C(=O)O[C@@H]2[C@H]3C(C)=CC[C@@]34O[C@@]4(C)CC[C@@H]12 [arglabin, reference compound] | < 40 | – | – | – | – | – | – | – | – | – | – | – | – | – | – | – | – | – | –
4 | C=C1C(=O)O[C@@H]2[C@@H]3[C@]4(CC[C@@]3(C)O)C[C@]4(C)CC[C@@H]12 [Compound 1] | < 40 | 4.82 ± 0.58 | 5.20 ± 0.87 | 7.09 ± 0.99 | 3.05 ± 0.58 | 3.11 ± 0.29 | 6.59 ± 0.18 | 7.89 ± 1.44 | 11.67 ± 1.84 | 7.99 ± 1.36 | 11.24 ± 2.98 | 8.86 ± 3.11 | 8.75 ± 2.25 | 7.01 ± 0.33 | 7.55 ± 2.08 | 7.17 ± 1.22 | 15.29 ± 0.88 | 19.17 ± 0.51 | 8.58 ± 0.85
